Results reported in US20050069587A1, “Novel drug compositions and dosage forms of topiramate” (priority 2003, published 2005).
In brackets after ≈: the same amount, converted by molar mass. Where two headings read alike, the source gives them in different places.

Columns and labels:
[1] = solubility of topiramate in de-ionized water and aqueous surfactant solutions; assay type: physicochemical; conditions: for solubility: water, thermodynamic from solid
Experimental: As defined herein, the solubility of a pharmaceutical agent is determined by adding the pharmaceutical agent to stirred or agitated de-ionized water maintained in a constant temperature bath at a temperature of 37° C. until no more pharmaceutical agent dissolves. The resulting solution saturated with the pharmaceutical agent is then filtered, typically under pressure through a 0.8-micron Millipore filter, and the concentration of the pharmaceutical agent in the solution is measured by any appropriate analytical method including gravimetric, ultraviolet spectrophometry, chromatography, and the like. The solubility of the pharmaceutical agent is measured at equilibrium.
A drug composition of the present invention was prepared as follows. Aqueous solutions of five surfactants were prepared. The selected surfactants were four grades of ethylene oxide/propylene oxide/ethylene oxide (LUTROL grades F127, F87, F 108, and F68) and PEG-40 stearate (MYRJ 52). Solutions were made at concentrations of 1, 5, and 15 weight percent. The aqueous surfactant blends solutions were chilled as necessary to promote complete dissolution of the surfactant prior to drug solubility studies.
The aqueous surfactant solutions were equilibrated to constant temperature in a 37° C. water bath. Then, neat topiramate drug was added slowly with stirring in approximately 10 mg increments to the surfactant solutions until no more drug dissolved. A control sample of drug dissolved in de-ionized water without surfactant was included for comparison purposes. The resulting saturated solutions of drug were filtered through 0.8 micron filters and analyzed for drug concentration by refractive index chromatography. The resulting solubility values were plotted as a function of both surfactant concentration and the hydrophilic-lipophilic balance value of each surfactant. FIG. 6 was constructed from the solubility values obtained and HLB data for each surfactant utilized.

[2] = room temperature; cited from earlier work
[3] = cited from earlier work

drug solubility in the presence of each surfactant compared to the control ([1]; LUTROL F127, F87, F108, F68, MYRJ 52 at 1, 5, 15 weight percent, 37° C.): higher
solubility ([1]; de-ionized water without surfactant, 37° C., read-out: solubility in de-ionized water without surfactant (control)): 13 mg/mL (≈ 38.3 mM)
solubility ([1]; de-ionized water, 37 °C, read-out: solubility in de-ionized water): ~12 mg/mL (≈ 35.4 mM)
solubility ([1]; neat drug, stated range, read-out: solubility of neat topiramate): 9.8 to 13 mg/mL (≈ 28.9 to 38.3 mM)
Compound: CC1(C)O[C@@H]2[C@@H](CO[C@@]3(COS(N)(=O)=O)OC(C)(C)O[C@@H]23)O1 [topiramate, 2,3:4,5-bis-O-(1-methylethylidene)-β-D-fructopyranose sulfamate]
solubility of topiramate in water [2]: about 9.8 mg/ml
mean elimination half life ([3]; in vivo): about 21 hours
time to peak plasma drug concentrations ([3]; oral administration of an immediate release dosage form): approximately 2 hours
